Results from paper PMC8765048 (JCI Insight, 2022).
Read-outs that look alike come from different tables or passages of the source.

Columns and labels:
A549 (human lung) = assay: CellTox Green Cytotoxicity Assay; details: ratio > 1 cytostatic, ≤ 1 cytotoxic
[1] = system: SARS-CoV-2 B.1.351 (Beta); assay: microbe, parasite or virus in culture; format: cell-based
[2] = Metabolic stability testing, liver microsomes; format: in vitro ADME; details: pH 7.4, 0.5 mg/mL microsomes, NADPH
Experimental: To evaluate metabolic stability, sangivamycin was incubated by Cyprotex in duplicate with active and heat-inactivated human and CD-1 laboratory mouse liver microsomes (0.5 mg/mL) and cofactors (2.5 mM NADPH and 3.3 mM MgCl2) in 0.1 M phosphate buffer (pH 7.4) at 37°C. Aliquots were removed at 0, 15, 30, 60, 90, and 120 minutes, and the amount of drug remaining at each time point was determined by LC-MS/MS.

[3] = Severe acute respiratory syndrome coronavirus 2, Calu-3, 48 h

In the case of NC(=O)c1cn([C@@H]2O[C@H](CO)[C@@H](O)[C@H]2O)c2ncnc(N)c12 [Sangivamycin, sangivamycin], the “Ratio CellTox Green/CellTiter-Glo” value (A549 (human lung)) is reported as greater than 28.9, the “SI (selectivity index, CC50/IC50)” value ([1]; B.1.351 (Beta), Calu-3 cells) is reported as greater than 10.1 and the IC50 [1, 3] is reported as 59.4 nM. The IC90 [1, 3] was 135 nM, the remaining at 2 h, 5 μM ([2]; CD-1, mouse, read-out: Mouse liver microsome stability (% remaining at 120 min)) was 100% and the remaining at 2 h, 5 μM ([2]; human, read-out: Human liver microsome stability (% remaining at 120 min)) was 100%.
